From PMC3981819, “Signaling Properties and Pharmacological Analysis of Two Sulfakinin Receptors from the Red Flour Beetle, Tribolium castaneum” (PLoS ONE, 2014)

Tests used:
Trica-SKR1 = assay: Aequorin-luminescence assay, CHO-WTA11 cells (Gα16) transfected with Trica-SKR1; assay type: cell-based, Tribolium castaneum; settings: for % Trica-SKR1 (relative activation): peptide at 1 μM, relative to sTrica-SK(5–13) at 1 μM = 100%, at least three biological repeats, each in duplicate
Procedure: (§1) General pharmacological studies were performed in Chinese Hamster Ovary (CHO) WTA11 cells, stably coexpressing apoaequorin, a zeocin resistance gene and the promiscuous Gα16, which couples most agonist-induced GPCRs to the phospholipase C and Ca^2+ pathway irrespective of their natural signaling cascade. CHO-PAM28 cells stably expressing apoaequorin and a puromycin resistance gene but not Gα16 and HEK293T cells (Invitrogen) were used to determine possible effects on Ca^2+ and/or cAMP second messenger systems, respectively. All cell lines were cultured in Dulbecco’s Modified Eagles Medium nutrient mixture F12-Ham (DMEM/F12; Invitrogen) supplemented with 1% penicillin/streptomycin (10000 units/ml penicillin and 10 mg/ml streptomycin in 0.9% NaCl; Invitrogen) to prevent bacterial contamination of gram-positive and gram-negative bacteria. In CHO-WTA11 culture medium 250 μg/ml zeocin (Invitrogen) was added as a selection marker, while CHO-PAM28 culture medium was supplemented with 5 μg/ml puromycin to select cells stably expressing apoaequorin. All cell culture media were supplemented with 10% fetal bovine serum (inactivated at […]; Sigma-Aldrich).
(§2) Cells were cultured in vitro as a monolayer at 37°C with a constant supply of 5% CO2 and were subcultivated twice a week. Transfections of cells were performed in T75 flasks at 60–80% confluency. Transfection reagent for CHO cells was prepared by combining 3.75 ml Opti-MEM I (Invitrogen), 7.5 μg plasmid DNA and 18.75 μl of Plus Reagent (Invitrogen). After gently mixing and 5 min incubation at room temperature 45 μl of Lipofectamine LTX was added to the mixture. This transfection medium was incubated for 30 min at room temperature and added dropwise to the cells, supplemented with 3 ml of fresh culture medium. HEK 293T cells were cotransfected with a receptor construct (6 μg) and CRE-luciferase reporter construct (3 μg), consisting of the open reading frame of the luciferase gene, downstream of a multimerized cAMP-response-element (CRE) and promoter. After transfection, cells were grown overnight before an additional 20 ml of culture medium was supplemented. Cells were again incubated overnight for a final growth phase before luminescence screens were performed.
(§3) The aequorin luminescence assay was used to measure Ca^2+ signaling in CHO cell lines. Cells were detached using phosphate buffered saline (PBS) containing 0.2% EDTA and collected in 10 ml of DMEM/F-12 (without phenol red, with L-glutamine and 10 mM HEPES; Gibco). The viable cells were quantified using a NucleoCounter NC-100 (Chemometic). Cells were pelleted by 4 min centrifugation at 800 rpm at room temperature and resuspended in DMEM/BSA (DMEM/F-12 without phenol red, with L-glutamine and 10 mM HEPES, 0.1% bovine serum albumin) at a concentration of 5×10^6 cells/ml. Cells were then shielded from light and Coelenterazine H (Invitrogen) was added at a final concentration of 5 μM. Cells were gently shaken at room temperature for 4 h under dark conditions, allowing the aequorin holoenzyme to be reconstituted. After a 10-fold dilution in DMEM/BSA, cells were incubated another 30 min under the same conditions. Pharmacological ligands were dissolved in DMEM/BSA and 50 μl of ligand was added to wells of a 96-well plate. Wells containing 50 μl of DMEM/BSA were used as a negative control, while wells containing 1 μM of ATP served as positive control. Incubated cells were added to the wells of the 96-well plate and light emission was measured for 30 s using a Mithras LB940 (Berthold Technologies). After 30 s Triton X-100 (0.2% in DMEM/BSA) was added, lysing the cells and thus serving as an internal reference. Light emission was measured for an additional 8 s after Triton X-100 was introduced in the wells. Light emission from each well was calculated relative to the total response (ligand+Triton X-100) using the output file of Mikrowin2000 software (Mikrotek). Further analysis was done in Graphpad Prism 5.

Trica-SKR2 = assay: Aequorin-luminescence assay, CHO-WTA11 cells (Gα16) transfected with Trica-SKR2; assay type: cell-based, Tribolium castaneum; settings: for % Trica-SKR2 (relative activation): peptide at 1 μM, relative to sTrica-SK(5–13) at 1 μM = 100%, at least three biological repeats, each in duplicate
Procedure: as §1, §2, §3

Row | EC50 (Trica-SKR1; aequorin bioluminescence, 1 fM to 1 μM, ± 95% confidence interval, three independent measurements in duplicate) | EC50 (Trica-SKR2; aequorin bioluminescence, 1 fM to 1 μM, three independent measurements in duplicate) | Substance | % Trica-SKR1 (relative activation) (Trica-SKR1; aequorin bioluminescence) | % Trica-SKR2 (relative activation) (Trica-SKR2; aequorin bioluminescence) | times less potent than sTrica-SK(5–13) in activating the Trica-SKR1 (Trica-SKR1; ratio of EC50 values) | times less potent than sTrica-SK(5–13) as Trica-SKR2 agonist (Trica-SKR2; ratio of EC50 values)
1 | – | – | DGY(SO3H)RPLQFa [1678B[φ1]wp-6, sulfated SK-like peptide encoded by C. elegans nlp-12] | 28.5% | 19.9% | – | –
2 | – | – | YGHMRFa [2011[φ1]wp-1, truncated nonsulfated SK analog] | 26.3% | 21.2% | – | –
3 | – | – | DDYGHMRFa [2009[φ1]wp-1, truncated nonsulfated SK analog] | 27.2% | 17.1% | – | –
4 | – | – | pQPSY(SO3H)DRDIMSFa [1679[φ1]wp-4, sulfated neuropeptide derived from C. elegans nlp-13] | 16.5% | 16.6% | – | –
5 | – | – | HMRFa [2052[φ1]wp-3, tetrapeptide HMRFamide, truncated analog] | 43.4% | 33.4% | – | –
6 | – | – | SPVDYDRPIMAFa [1432-2[φ]wp-6, peptide derived from C. elegans nlp-13] | 16.4% | 11.2% | – | –
7 | 0.0168 ± 0.0046 µM | 0.776 ± 0.443 µM | pQLASDDY(SO3H)GHMRFa [sLocmi-SK, sulfated SK from the migratory locust, Locusta migratoria] | 75.0% | 79.9% | about 150 times | ca. 1500 times
8 | – | – | pQLASDDYGHMRFa [nsLocmi-SK, nonsulfated Locusta migratoria SK] | 22.2% | 18.2% | – | –
9 | – | – | DYGHMRFa [2010[φ1]wp-1, truncated nonsulfated SK analog] | 7.6% | 8.6% | – | –
10 | – | – | FDDYGHMAFa [2004[φ1]wp-1, alanine scan analog of nsTrica-SK] | 5.9% | 7.3% | – | –
11 | – | – | FDDYGHMRa [2076[φ1]wp-2] | 25.8% | 19.7% | – | –
12 | – | – | FDDAGHMRFa [2008[φ1]wp-2, alanine scan analog of nsTrica-SK, tyrosine replaced] | 10.1% | 12.1% | – | –
13 | – | – | FDDYGHMRAa [2003[φ1]wp-2, alanine scan analog of nsTrica-SK] | 8.2% | 15.6% | – | –
14 | – | – | GHMRFa [2053[φ1]wp-4, truncated nonsulfated SK analog] | 13.3% | 44.6% | – | –
15 | – | – | FDDYGHARFa [2005[φ1]wp-3, alanine scan analog of nsTrica-SK] | 5.1% | 11.1% | – | –
16 | – | – | DY(SO3H)RPLQFa [1678A[φ1]wp-4, sulfated SK-like peptide encoded by C. elegans nlp-12] | 40.8% | 32.6% | – | –
17 | – | – | FDDYGAMRFa [2006[φ1]wp-1, alanine scan analog of nsTrica-SK] | 2.3% | 3.5% | – | –
18 | – | – | SDDY(SO3H)GHMRFa [1835[φ2]wp-4, sulfated SK analog SDDY(SO3H)GHMRFa] | 58.2% | 41.4% | – | –
19 | – | – | SPVDY(SO3H)DRPIMAFa [1567[φ1]wp-5, sulfated neuropeptide derived from C. elegans nlp-13] | 23.6% | 33.7% | – | –
20 | – | – | FDDYGHMRFa [nsTrica-SK(5–13)] | 29.9% | 23.5% | – | –
21 | – | – | PVDY(SO3H)DRPIMAFa [1569[φ2]wp-4, sulfated neuropeptide derived from C. elegans nlp-13] | 6.2% | 13.4% | – | –
